Tests used:
Conditions in all cases: 72 h
K-562 = tested on: K-562
How it was run: (§1)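 Fifteen myeloid leukaemia lines were incubated for 72 h at 37 °C with 5% CO2 across five tenfold doses from 1 to 10,000 nM, in duplicate. ATP luminescence was normalised to vehicle and to a positive control at 10 µM and fitted with a four-parameter log-logistic model. The IC50 came from these dose–response fits.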

SHI-1 = tested on: SHI-1
How it was run: as §1

BV-173 = tested on: BV-173
How it was run: as §1

MV4-11 = tested on: MV4-11
How it was run: as §1

KU-812 = tested on: KU-812
How it was run: as §1

KCL-22 = tested on: KCL-22
How it was run: as §1

HEL = tested on: HEL
How it was run: as §1

THP-1 = tested on: THP-1
How it was run: as §1

MOLM-13 = tested on: MOLM-13
How it was run: as §1

HL-60 = tested on: HL-60
How it was run: as §1

KG-1 = tested on: KG-1
How it was run: as §1

LAMA-84 = tested on: LAMA-84
How it was run: as §1

ML-2 = tested on: ML-2
How it was run: as §1

Mono-Mac-6 = tested on: Mono-Mac-6
How it was run: as §1

[1] = tested on: myeloid leukemia patient primary cells Pat.11; assay: area under dose-response curve (viability, 1 nM-10 uM) (fraction (0-1)); higher = more sensitive
Description: (§2)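 AUC (0–1, higher = more sensitive) of the 5-point dose–response (1 nM–10 µM, 72 h, CellTiter-Glo) in primary AML/CML patient mononuclear cells. 0.030103 is the floor for inactive compounds.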

[2] = tested on: myeloid leukemia patient primary cells Pat.14; assay: as above
Description: as §2

[3] = tested on: myeloid leukemia patient primary cells Pat.5; assay: as above
Description: as §2

[4] = tested on: myeloid leukemia patient primary cells Pat.10; assay: as above
Description: as §2

[5] = tested on: myeloid leukemia patient primary cells Pat.2; assay: as above
Description: as §2

[6] = tested on: myeloid leukemia patient primary cells Pat.8; assay: as above
Description: as §2

[7] = tested on: myeloid leukemia patient primary cells Pat.7; assay: as above
Description: as §2

[8] = tested on: myeloid leukemia patient primary cells Pat.13; assay: as above
Description: as §2

[9] = tested on: myeloid leukemia patient primary cells Pat.12; assay: as above
Description: as §2

[10] = tested on: myeloid leukemia patient primary cells Pat.9; assay: as above
Description: as §2

[11] = tested on: myeloid leukemia patient primary cells Pat.1; assay: as above
Description: as §2

[12] = tested on: myeloid leukemia patient primary cells Pat.6; assay: as above
Description: as §2

[13] = tested on: myeloid leukemia patient primary cells Pat.11; assay: cell viability (% survival relative to DMSO control); higher = less cytotoxic
How it was run: (§3)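 Thawed mononuclear cells from AML or CML patients were purified on Ficoll and cultured for 72 h in RPMI 1640 with 10% FBS, at 10,000 cells/well, on 384-well plates carrying 70 pre-printed compounds at 1–10,000 nM in five tenfold steps, in duplicate. Viability came from CellTiter-Glo, normalised against DMSO and against 10 μM proteasome inhibitor. Any area under the curve given was derived from log-logistic curve fits in the drc and PharmacoGx R packages, and these fits had four parameters.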

[14] = tested on: myeloid leukemia patient primary cells Pat.3; assay: as above
How it was run: as §3

[15] = tested on: myeloid leukemia patient primary cells Pat.10; assay: as above
How it was run: as §3

[16] = tested on: myeloid leukemia patient primary cells Pat.13; assay: as above
How it was run: as §3

[17] = tested on: myeloid leukemia patient primary cells Pat.12; assay: as above
How it was run: as §3

[18] = tested on: myeloid leukemia patient primary cells Pat.9; assay: as above
How it was run: as §3

[19] = tested on: myeloid leukemia patient primary cells Pat.1; assay: as above
How it was run: as §3

[20] = tested on: myeloid leukemia patient primary cells Pat.3; assay: area under dose-response curve (viability, 1 nM-10 uM) (fraction (0-1)); higher = more sensitive
Description: as §2

[21] = tested on: myeloid leukemia patient primary cells Pat.15; assay: as above
Description: as §2

[22] = tested on: myeloid leukemia patient primary cells Pat.4; assay: as above
Description: as §2

Cc1nnc(-c2ccc(N3CCC(Oc4ccccc4C(F)(F)F)CC3)nn2)s1 [MF-438]
Conditions | IC50 (cell viability) [nM] | area under dose-response curve
BV-173 | > 10000 | –
HEL | > 10000 | –
HL-60 | > 10000 | –
K-562 | 47.2 | –
KCL-22 | 2290 | –
KG-1 | > 10000 | –
KU-812 | > 10000 | –
LAMA-84 | > 10000 | –
ML-2 | > 10000 | –
MOLM-13 | 68.7 | –
MV4-11 | 9320 | –
Mono-Mac-6 | > 10000 | –
SHI-1 | > 10000 | –
THP-1 | > 10000 | –
[1] | – | < 0.0301
[2] | – | < 0.0301
[3] | – | 0.232
[4] | – | < 0.0301
[5] | – | < 0.0301
[6] | – | < 0.0301
[7] | – | 0.128
[8] | – | < 0.0301
[9] | – | < 0.0301
[10] | – | < 0.0301
[11] | – | < 0.0301
[12] | – | < 0.0301

cell viability [%]
Conditions | [13] | [14] | [15] | [16] | [17] | [18] | [19]
1 nM | 94 | 76.3 | 80.2 | 86.8 | 99.4 | 56.2 | 78.8
10 nM | 96.6 | 77.5 | 89.2 | 86.4 | 97.1 | 91.2 | 85.8
100 nM | > 100 | 72.9 | 96.8 | 86.9 | > 100 | 87.2 | 97.1
1000 nM | > 100 | 61.3 | 87.5 | 80.8 | 87.5 | 69.3 | 90.5
10000 nM | 90.6 | 74.1 | > 100 | 97.4 | 90.5 | 75.2 | 82.8

O=C(Cc1cccc(OC(F)(F)F)c1)Nc1ccc(CCCCc2nnc(NC(=O)Cc3ccccn3)s2)nn1 [CB-839]
Conditions | IC50 (cell viability) [nM] | area under dose-response curve
BV-173 | 118 | –
HEL | > 10000 | –
HL-60 | 637 | –
K-562 | > 10000 | –
KCL-22 | 822 | –
KG-1 | 638 | –
KU-812 | > 10000 | –
LAMA-84 | 9930 | –
ML-2 | > 10000 | –
MOLM-13 | > 10000 | –
MV4-11 | 619 | –
Mono-Mac-6 | > 10000 | –
SHI-1 | > 10000 | –
THP-1 | > 10000 | –
[1] | – | < 0.0301
[2] | – | 0.434
[3] | – | < 0.0301
[4] | – | 0.665
[5] | – | < 0.0301
[6] | – | < 0.0301
[7] | – | 0.532
[8] | – | < 0.0301
[9] | – | < 0.0301
[10] | – | 0.752
[11] | – | < 0.0301
[12] | – | < 0.0301
[20] | – | 0.702
[21] | – | 0.283
[22] | – | < 0.0301

cell viability [%]
Conditions | [13] | [14] | [15] | [16] | [17] | [18] | [19]
1 nM | 94.1 | 67.7 | 52.5 | 85.3 | 86.8 | 62.2 | 84.7
10 nM | 88.4 | 39.5 | 47.9 | 88.9 | 89.6 | 35.3 | 81.3
100 nM | 85.1 | 11.1 | 24.4 | 69 | 88 | 1.99 | 46.7
1000 nM | 74.3 | 9.36 | 44.8 | 64.6 | 80.1 | 7.13 | 56.4
10000 nM | 90.7 | 14.5 | 68.9 | 84 | 99.4 | 14.1 | 59.1

O=C(Oc1cccc(F)c1OC(=O)c1cccc(O)c1)c1cccc(O)c1 [WZB117]
Conditions | IC50 (cell viability) [nM] | area under dose-response curve
BV-173 | 4560 | –
HEL | > 10000 | –
HL-60 | 9700 | –
K-562 | > 10000 | –
KCL-22 | > 10000 | –
KG-1 | 5350 | –
KU-812 | 3880 | –
LAMA-84 | > 10000 | –
ML-2 | 5890 | –
MOLM-13 | 8470 | –
MV4-11 | 2930 | –
Mono-Mac-6 | 4740 | –
SHI-1 | > 10000 | –
THP-1 | > 10000 | –
[1] | – | 0.0511
[2] | – | 0.107
[3] | – | 0.748
[4] | – | 0.176
[5] | – | 0.0336
[6] | – | 0.211
[7] | – | 0.119
[8] | – | < 0.0301
[9] | – | 0.0633
[10] | – | 0.223
[11] | – | 0.0346
[12] | – | < 0.0301
[20] | – | 0.162
[22] | – | 0.0833

cell viability [%]
Conditions | [13] | [14] | [15] | [16] | [17] | [18] | [19]
1 nM | > 100 | 96.7 | 70.4 | 94.5 | 98.4 | 60.3 | 98
10 nM | 94.1 | 71.3 | 90.9 | 86.2 | 92.8 | 27.8 | 81.2
100 nM | > 100 | 83 | 74.7 | 78.5 | 95.5 | 46.5 | 78
1000 nM | 95.1 | 72.5 | 54.5 | 91 | 86.4 | 59.5 | 88.7
10000 nM | 75.4 | < 0 | 31.5 | 63.9 | 57 | 2.92 | 47.3

Nc1ccn([C@@H]2O[C@H](CO)[C@@H](O)C2(F)F)c(=O)n1 [Gemcitabine]
Conditions | IC50 (cell viability) [nM] | area under dose-response curve
BV-173 | 2.13 | –
HEL | 3.46 | –
HL-60 | 8.03 | –
K-562 | 16.4 | –
KCL-22 | 6.87 | –
KG-1 | 6.1 | –
KU-812 | 3.3 | –
LAMA-84 | 8.97 | –
ML-2 | 3.12 | –
MOLM-13 | 3.11 | –
MV4-11 | 1.88 | –
Mono-Mac-6 | 3.01 | –
SHI-1 | 4.79 | –
THP-1 | 6.87 | –
[2] | – | 0.131
[3] | – | 0.956
[4] | – | 0.257
[5] | – | 0.0848
[6] | – | 0.0474
[7] | – | 0.135
[8] | – | 0.0519
[9] | – | < 0.0301
[10] | – | 0.956
[11] | – | 0.0673
[12] | – | < 0.0301
[20] | – | 0.782
[21] | – | 0.0872
[22] | – | 0.155

cell viability [%]
Conditions | [13] | [14] | [15] | [16] | [17] | [18] | [19]
1 nM | 95.3 | 61.9 | 67.4 | 89.5 | 96.3 | 3.95 | 83.4
10 nM | 91.6 | 22.1 | 32.6 | 84.5 | 95.9 | 6.11 | 92.9
100 nM | > 100 | 25 | 64.3 | 90.2 | 98.4 | 56.7 | 99.6
1000 nM | 83.6 | 7.9 | 45.5 | 86.3 | 92.4 | 15.4 | 76.6
10000 nM | 67.2 | 4.31 | 7.03 | 36.4 | 82.8 | 6.78 | 54.5
